According to ChEMBL document CHEMBL4813953, “Kinetics-Driven Drug Design Strategy for Next-Generation Acetylcholinesterase Inhibitors to Clinical Candidate” (J Med Chem, 2021):
Calls of active or inactive are those of the source. The calls are words filed in the database; no cut-off is given here.

Assays:
[1] = molecular target: Acetylcholinesterase (Homo sapiens, UniProt P22303); test: Binding affinity to CM5 sensor chip immobilized recombinant human AChE assessed as dissociation constant at 298.15 K by surface plasmon resonance assay
Acetylcholinesterase, sequence (P22303 whole entry): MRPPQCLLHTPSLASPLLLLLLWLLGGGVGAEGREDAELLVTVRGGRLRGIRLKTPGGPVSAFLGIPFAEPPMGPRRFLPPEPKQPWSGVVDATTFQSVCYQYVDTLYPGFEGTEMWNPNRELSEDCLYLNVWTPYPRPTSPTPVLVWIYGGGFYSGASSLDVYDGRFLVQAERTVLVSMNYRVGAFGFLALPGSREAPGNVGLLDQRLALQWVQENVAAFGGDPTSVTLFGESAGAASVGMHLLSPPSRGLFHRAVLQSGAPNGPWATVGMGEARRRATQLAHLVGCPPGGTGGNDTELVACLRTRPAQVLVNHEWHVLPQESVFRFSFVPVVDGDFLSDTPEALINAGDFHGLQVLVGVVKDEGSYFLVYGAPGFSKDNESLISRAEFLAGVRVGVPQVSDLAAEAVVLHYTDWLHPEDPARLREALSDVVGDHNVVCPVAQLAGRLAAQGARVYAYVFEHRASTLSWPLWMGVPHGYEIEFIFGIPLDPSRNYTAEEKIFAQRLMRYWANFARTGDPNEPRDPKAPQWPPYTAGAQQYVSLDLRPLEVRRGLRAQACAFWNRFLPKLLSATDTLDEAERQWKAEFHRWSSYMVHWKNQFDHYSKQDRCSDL

[2] = species: Rattus norvegicus; test: Selectivity index, ratio of IC50 for rat serum BuChE using S-butyrylthiocholine iodide as substrate to IC50 for rat cortex homogenate acetylcholinesterase using acetylthiocholine iodide as substrate
[3] = Tmax in human plasma at 1 mg, po; type: ADME, cell-free
[4] = Tmax in human plasma at 4 mg, po; type: ADME, cell-free
[5] = Tmax in human plasma at 12 mg, po; type: ADME, cell-free
[6] = Cmax in Sprague-Dawley rat at 0.5 mg/kg, po; type: ADME, organism-based; set-up: route oral, dose 0.5 mg/kg; settings: in vivo
[7] = Cmax in Beagle dog at 0.25 mg/kg, po; type: ADME, organism-based, Canis lupus familiaris; set-up: route oral, dose 0.25 mg/kg; settings: in vivo
[8] = Cmax in human plasma at 4 mg, po; type: ADME, cell-free; set-up: route oral, dose 4 mg
[9] = Cmax in human plasma at 8 mg, po; type: ADME, cell-free; set-up: route oral, dose 8 mg
[10] = Cmax in human plasma at 12 mg, po; type: ADME, cell-free; set-up: route oral, dose 12 mg
[11] = AUC (0 to infinity) in Sprague-Dawley rat at 0.5 mg/kg, po; type: ADME, organism-based; set-up: time infinity, route oral, dose 0.5 mg/kg; settings: in vivo
[12] = AUC (0 to infinity) in Beagle dog at 0.25 mg/kg, po; type: ADME, organism-based, Canis lupus familiaris; set-up: route oral, time infinity, dose 0.25 mg/kg; settings: in vivo
[13] = AUC (0 to infinity) in Sprague-Dawley rat at 0.5 mg/kg, iv; type: ADME, organism-based; set-up: time infinity, route intravenous, dose 0.5 mg/kg; settings: in vivo
[14] = MRT (0 to infinity) in Beagle dog at 0.25 mg/kg, iv; type: ADME, organism-based, Canis lupus familiaris; settings: in vivo
[15] = Half life in Beagle dog at 0.25 mg/kg, po; type: ADME, organism-based, Canis lupus familiaris; settings: in vivo
[16] = Terminal half life in human plasma at 1 mg, po; type: ADME, cell-free; settings: read-out: beta t1/2 (converted)
[17] = Clearance in Sprague-Dawley rat at 0.5 mg/kg, iv; type: ADME, organism-based; settings: in vivo
[18] = Volume of distribution at steady state in Sprague-Dawley rat at 0.5 mg/kg, po or iv; type: ADME, organism-based; settings: in vivo, read-out: Vdss
[19] = Cmax in Sprague-Dawley rat brain at 10 mg/kg, po; type: ADME, organism-based; set-up: route oral, dose 10 mg/kg
[20] = AUC(0 to t) in Sprague-Dawley rat brain at 10 mg/kg, po; type: ADME, organism-based; set-up: dose 10 mg/kg
[21] = Tmax in Sprague-Dawley rat plasma at 10 mg/kg, po; type: ADME, organism-based
[22] = MRT in Sprague-Dawley rat plasma at 10 mg/kg, po; type: ADME, organism-based
[23] = Protein binding in human plasma; type: ADME, cell-free; settings: read-out: PPB (converted)
[24] = Protein binding in dog plasma; type: ADME, cell-free, Canis lupus familiaris; settings: read-out: PPB (converted)
[25] = Permeability in human Caco-2 cells at 2 to 50 uM; type: ADME, cell-based; settings: dose 2-50 µM, read-out: permeability
[26] = molecular target: Voltage-gated inwardly rectifying potassium channel KCNH2 (Homo sapiens, UniProt Q12809); test: Inhibition of human ERG
Voltage-gated inwardly rectifying potassium channel KCNH2, sequence (Q12809 whole entry): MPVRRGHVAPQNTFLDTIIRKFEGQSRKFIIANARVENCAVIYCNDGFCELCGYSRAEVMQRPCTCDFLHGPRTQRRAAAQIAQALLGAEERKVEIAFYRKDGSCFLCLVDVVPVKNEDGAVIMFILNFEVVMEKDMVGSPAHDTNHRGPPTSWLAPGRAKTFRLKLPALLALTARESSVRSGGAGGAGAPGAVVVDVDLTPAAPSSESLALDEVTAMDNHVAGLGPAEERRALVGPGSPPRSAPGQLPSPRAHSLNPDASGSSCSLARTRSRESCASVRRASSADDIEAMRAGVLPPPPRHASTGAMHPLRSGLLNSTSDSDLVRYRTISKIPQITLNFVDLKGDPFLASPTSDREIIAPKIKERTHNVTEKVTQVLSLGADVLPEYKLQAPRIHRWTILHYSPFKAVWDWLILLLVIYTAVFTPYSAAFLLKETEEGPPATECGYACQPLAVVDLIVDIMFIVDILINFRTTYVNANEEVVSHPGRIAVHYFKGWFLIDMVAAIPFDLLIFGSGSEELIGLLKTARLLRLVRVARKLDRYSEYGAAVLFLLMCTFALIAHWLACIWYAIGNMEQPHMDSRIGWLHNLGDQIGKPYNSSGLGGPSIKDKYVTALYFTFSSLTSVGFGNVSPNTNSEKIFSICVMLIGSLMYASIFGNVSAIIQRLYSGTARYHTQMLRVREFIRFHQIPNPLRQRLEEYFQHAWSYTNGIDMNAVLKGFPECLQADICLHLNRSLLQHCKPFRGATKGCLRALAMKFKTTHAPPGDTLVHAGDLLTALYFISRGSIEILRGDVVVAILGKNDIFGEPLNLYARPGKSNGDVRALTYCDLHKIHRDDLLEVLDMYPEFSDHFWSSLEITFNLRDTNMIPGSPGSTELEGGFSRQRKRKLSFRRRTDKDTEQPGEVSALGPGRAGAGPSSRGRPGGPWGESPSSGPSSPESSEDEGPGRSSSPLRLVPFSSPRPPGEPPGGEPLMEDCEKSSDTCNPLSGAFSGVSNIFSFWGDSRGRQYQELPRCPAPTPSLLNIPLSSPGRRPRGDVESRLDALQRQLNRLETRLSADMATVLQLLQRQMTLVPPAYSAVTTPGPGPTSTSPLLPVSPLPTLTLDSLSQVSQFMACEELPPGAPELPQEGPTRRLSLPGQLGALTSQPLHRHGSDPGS

[27] = Genotoxicity in Salmonella typhimurium TA97 by Ames test; type: toxicity; settings: salmonella enterica subsp. enterica serovar typhimurium
[28] = Genotoxicity in Salmonella typhimurium TA100 by Ames test; type: toxicity; settings: salmonella enterica subsp. enterica serovar typhimurium
[29] = Genotoxicity in Salmonella typhimurium TA102 by Ames test; type: toxicity; settings: salmonella enterica subsp. enterica serovar typhimurium
[30] = system: Mus musculus; test: Cognitive enhancing effect in mouse model of scopolamine-induced memory impairment assessed as reduction in escape latency time at 0.5 to 2 mg/kg, IG QD for 3 days by channel water maze test; type: functional, organism-based; settings: dose 0.5-2 mg/kg, time 3.0 day
[31] = system: Mus musculus; test: Cognitive enhancing effect in mouse model of scopolamine-induced memory impairment assessed as reduction in number of errors at 1 to 2 mg/kg, IG QD for 3 days by channel water maze test; type: functional, organism-based; settings: dose 1-2 mg/kg, time 3.0 day
[32] = system: Mus musculus; test: Cognitive enhancing effect in ig dosed APP/PS1 double mutant-transgenic mouse model assessed as increase in spontaneous alteration administered once daily by Y-maze test; type: functional, organism-based; settings: dose 0.25-1 mg/kg
[33] = system: Mus musculus; test: Improvement in learning and spatial memory in APP/PS1 double mutant-transgenic mouse model assessed as increase in number of platform crossings at 0.5 to 1 mg/kg, po for 3 months measured during probe trial by Morris water maze test; type: functional, organism-based; settings: dose 0.5-1 mg/kg
[34] = Cardiotoxicity in Beagle dog assessed as effect on […] at 0.1 to 1 mg/kg; type: toxicity, organism-based, Canis lupus familiaris; settings: in vivo, dose 0.1-1 mg/kg
[35] = Toxicity in Beagle dog assessed as effect on blood pressure at 0.1 to 1 mg/kg; type: organism-based, Canis lupus familiaris; settings: in vivo, dose 0.1-1 mg/kg
[36] = molecular target: Cytochrome P450 2C9 (Homo sapiens, UniProt P11712); test: Inhibition of CYP2C9 in human hepatocytes; type: ADME, cell-based, Hepatocyte
Cytochrome P450 2C9, sequence (P11712 whole entry): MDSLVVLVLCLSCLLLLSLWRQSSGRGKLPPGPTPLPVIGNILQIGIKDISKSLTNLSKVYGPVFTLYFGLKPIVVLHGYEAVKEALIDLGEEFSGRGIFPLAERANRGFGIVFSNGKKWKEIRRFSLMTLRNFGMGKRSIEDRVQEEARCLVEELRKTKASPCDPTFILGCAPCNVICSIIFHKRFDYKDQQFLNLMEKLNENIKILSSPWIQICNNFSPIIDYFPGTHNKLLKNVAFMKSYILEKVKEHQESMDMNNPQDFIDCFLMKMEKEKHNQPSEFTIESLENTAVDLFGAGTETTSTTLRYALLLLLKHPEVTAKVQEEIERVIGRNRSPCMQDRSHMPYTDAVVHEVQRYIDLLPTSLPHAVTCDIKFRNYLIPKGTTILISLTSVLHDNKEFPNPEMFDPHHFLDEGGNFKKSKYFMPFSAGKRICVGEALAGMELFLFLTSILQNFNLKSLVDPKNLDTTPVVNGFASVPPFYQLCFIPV

[37] = molecular target: T1, Cytochrome P450 1A2 (Homo sapiens, UniProt P05177); test: Inhibition of CYP1A2 in human hepatocytes; type: ADME, cell-based, Hepatocyte
T1 sequence (P05177 whole entry): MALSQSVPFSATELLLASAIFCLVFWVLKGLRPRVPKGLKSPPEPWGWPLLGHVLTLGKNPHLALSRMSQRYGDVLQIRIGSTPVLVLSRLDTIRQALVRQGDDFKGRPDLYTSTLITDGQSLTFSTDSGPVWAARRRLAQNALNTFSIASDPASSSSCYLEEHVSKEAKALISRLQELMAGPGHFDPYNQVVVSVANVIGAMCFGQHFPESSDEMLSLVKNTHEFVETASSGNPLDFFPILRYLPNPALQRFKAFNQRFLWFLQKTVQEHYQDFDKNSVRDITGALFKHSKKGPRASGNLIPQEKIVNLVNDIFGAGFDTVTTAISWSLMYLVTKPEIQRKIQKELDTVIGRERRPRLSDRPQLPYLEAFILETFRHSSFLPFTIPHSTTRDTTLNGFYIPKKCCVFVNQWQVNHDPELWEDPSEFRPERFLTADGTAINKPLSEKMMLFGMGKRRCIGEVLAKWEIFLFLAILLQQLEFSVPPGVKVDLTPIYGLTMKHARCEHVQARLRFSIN

[38] = molecular target: T2, Cytochrome P450 2B6 (Homo sapiens, UniProt P20813); test: Inhibition of CYP2B6 in human hepatocytes; type: ADME, cell-based, Hepatocyte
T2 sequence (P20813 whole entry): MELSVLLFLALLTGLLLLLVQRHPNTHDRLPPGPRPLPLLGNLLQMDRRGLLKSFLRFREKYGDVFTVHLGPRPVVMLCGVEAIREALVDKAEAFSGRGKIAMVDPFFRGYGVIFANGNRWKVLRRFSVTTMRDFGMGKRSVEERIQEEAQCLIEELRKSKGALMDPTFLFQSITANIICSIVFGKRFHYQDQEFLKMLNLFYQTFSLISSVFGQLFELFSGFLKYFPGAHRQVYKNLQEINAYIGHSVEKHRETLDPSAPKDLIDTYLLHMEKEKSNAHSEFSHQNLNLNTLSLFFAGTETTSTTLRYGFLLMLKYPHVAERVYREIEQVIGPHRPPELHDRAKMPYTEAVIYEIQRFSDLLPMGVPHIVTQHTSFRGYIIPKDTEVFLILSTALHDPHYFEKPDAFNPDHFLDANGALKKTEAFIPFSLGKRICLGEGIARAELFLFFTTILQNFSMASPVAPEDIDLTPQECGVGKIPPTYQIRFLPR

[39] = Toxicity in Beagle dog assessed as animal death at 1 to 20 mg/kg, po; type: organism-based, Canis lupus familiaris; settings: in vivo, dose 1-20 mg/kg

COc1cc2c(cc1OC)C(=O)C(CC1(F)CCN(Cc3ccccc3F)CC1)C2 (centres undefined)
Kd [1]: 0.0035 µM | Ratio IC50 [2]: 36900 | Tmax [3]: 1.5 h | Tmax [4]: 0.75 h | Tmax [5]: 1.5 h | Cmax [6]: 35.7 ng/mL | Cmax [7]: 16.9 ng/mL | Cmax [8]: 8.61 ng/mL | Cmax [9]: 16.4 ng/mL | Cmax [10]: 23.5 ng/mL | AUC(0-inf) [11]: 179 ng·h/mL | AUC(0-inf) [12]: 157 ng·h/mL | AUC(0-inf) [13]: 395 ng·h/mL | MRT inf [14]: 23.6 h | half-life [15]: 23.2 h | half-life [16]: 14.2 h | clearance [17]: 23.7 mL/min/kg | Vd [18]: 6.52 L/kg | Cmax [19]: 831 ng/mL | AUC(0-t) [20]: 5840 ng·h/mL | Tmax [21]: 0.5 h | MRT [22]: 6.81 h | fraction unbound [23]: 0.022 | fraction unbound [24]: 0.035 | Papp at up to 50 µM [25]: 0.574 ×10⁻⁶ cm/s | IC50 [26]: 9.23 µM | Activity [27]: Non-Toxic | Activity [28]: Non-Toxic | Activity [29]: Non-Toxic | Activity [30]: Active | Activity [31]: Active | Activity [32]: Active | Activity [33]: Active | Activity [34]: Non-Toxic | Activity [35]: Non-Toxic | IC50 [36]: 4.77 µM | IC50 [37]: > 30 µM | IC50 [38]: > 30 µM | Activity [39]: Non-Toxic
